According to publication PMC6692071 (Journal of medicinal chemistry, 2018):
“Also recorded” adds a separate entry of the source.

Tests used:
[1] = rat PK studies
human δ opioid receptor [2] = molecular target: T1, human δ opioid receptor (Homo sapiens, UniProt P41143); assay: biochemical
human κ opioid receptor = human κ opioid receptor (Homo sapiens, UniProt P41145); conditions: mean ± SEM; cited from earlier work
human δ opioid receptor [3] = molecular target: T1, human δ opioid receptor; conditions: mean ± SEM; cited from earlier work

T1 sequence (P41143 whole entry): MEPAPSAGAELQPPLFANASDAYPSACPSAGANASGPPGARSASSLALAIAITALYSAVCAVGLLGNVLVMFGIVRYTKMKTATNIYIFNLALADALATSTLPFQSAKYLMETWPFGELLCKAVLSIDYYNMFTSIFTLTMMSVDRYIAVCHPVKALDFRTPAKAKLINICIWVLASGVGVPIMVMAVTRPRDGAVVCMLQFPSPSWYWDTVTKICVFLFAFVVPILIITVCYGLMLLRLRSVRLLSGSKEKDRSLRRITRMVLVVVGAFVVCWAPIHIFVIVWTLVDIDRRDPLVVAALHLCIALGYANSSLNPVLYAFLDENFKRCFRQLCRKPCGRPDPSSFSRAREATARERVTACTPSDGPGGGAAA
Chain of human κ opioid receptor (P41145 whole entry): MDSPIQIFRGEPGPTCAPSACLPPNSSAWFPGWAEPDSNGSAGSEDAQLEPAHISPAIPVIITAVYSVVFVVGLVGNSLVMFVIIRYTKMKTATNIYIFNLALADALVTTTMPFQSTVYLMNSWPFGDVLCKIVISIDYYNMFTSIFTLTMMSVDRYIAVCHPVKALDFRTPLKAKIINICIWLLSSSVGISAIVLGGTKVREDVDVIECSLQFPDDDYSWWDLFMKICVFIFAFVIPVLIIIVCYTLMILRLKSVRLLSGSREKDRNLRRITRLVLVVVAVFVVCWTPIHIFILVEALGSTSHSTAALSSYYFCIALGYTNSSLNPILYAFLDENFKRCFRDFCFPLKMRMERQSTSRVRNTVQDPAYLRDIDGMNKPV

Kb (human δ opioid receptor [2]) [µM] | Compound | Ke δ, DPDPE (human δ opioid receptor [3]) [nM] | further results
– | CC(C)[C@@H](CC1CCCCC1)NC(=O)[C@H]1Cc2ccc(C(N)=O)cc2CN1 [Compound 9, (3R)-N^3-[(1R)-1-(Cyclohexylmethyl)-2-methylpropyl]-1,2,3,4-tetrahydroisoquinoline-3,7-dicarboxamide] | – | brain penetration [1]: brain penetration
> 3 | CC(C)[C@H](CC1CCCCC1)NC(=O)[C@@H]1Cc2ccc(O)cc2CN1 [Compound 5, (3S)-N-[(1S)-1-(Cyclohexylmethyl)-2-methylpropyl]-7-hydroxy-1,2,3,4-tetrahydroisoquinoline-3-carboxamide] | – | –
– | CC(C)[C@@H](CN1CC[C@@](C)(c2cccc(O)c2)[C@@H](C)C1)NC(=O)[C@H]1Cc2ccc(O)cc2CN1 [JDTic, (3R)-1,2,3,4-tetrahydro-7-hydroxy-N-[(1S)-1-[[(3R,4R)-4-(3-hydroxy-phenyl)-3,4-dimethyl-1-piperidinyl]methyl]-2-methylpropyl]-3-iso-quinolinecarboxamide] | – | Ke κ, U69,593 (human κ opioid receptor): 0.02 ± 0.01 nM
> 3 | CC(C)[C@H](CC1CCCCC1)NC(=O)[C@H]1Cc2ccc(O)cc2CN1 [Compound 4, (3R)-N-[(1S)-1-(Cyclohexylmethyl)-2-methylpropyl]-7-hydroxy-1,2,3,4-tetrahydroisoquinoline-3-carboxamide] | – | –
– | CC1CCN(C[C@@H](NC(=O)[C@H]2Cc3ccc(O)cc3CN2)C(C)C)CC1 [4-MePDTic (43)] | >3000 | –
– | CC(C)[C@@H](CC1CCCCC1)NC(=O)[C@H]1Cc2ccc(O)cc2CN1 [Compound 1] | 640 ± 170 | –
> 3 | CC(C)[C@@H](CC1CCCCC1)NC(=O)[C@@H]1Cc2ccc(O)cc2CN1 [Compound 3, (3S)-N-[(1R)-1-(Cyclohexylmethyl)-2-methylpropyl]-7-hy-droxy-1,2,3,4-tetrahydroisoquinoline-3-carboxamide] | – | –
– | CC(C)[C@@H](CC1CCCC1)NC(=O)[C@H]1Cc2ccc(O)cc2CN1 [Compound 13, (3R)-N-[(1R)-1-(Cyclopentylmethyl)-2-methylpropyl]-7-hydroxy-1,2,3,4-tetrahydroisoquinoline-3-carboxamide] | – | brain penetration [1]: brain penetration; also recorded: crossed the blood–brain barrier; also recorded: penetrate the brain
– | CC(C)[C@@H](CN1CCCCC1)NC(=O)[C@H]1Cc2ccc(O)cc2CN1 [Compound 42, (3R)-7-hydroxy-N-[(1S)-2-methyl-1-(piperidin-1-ylmethyl)propyl]-1,2,3,4-tetrahydroisoquinoline-3-carboxamide] | >3000 | –
